One assay deals with ThnG. In words: In vitro reaction of carbapenam/ems with purified ThnG, HPLC and ESI-MS analysis of products. Type of assay: biochemical, Streptomyces cattleya. Conditions: 1 mM substrate, 0.2 mg/mL ThnG, 25 mM MOPS pH 7.0, ferrous ammonium sulfate, α-KG, ascorbate, room temperature 1 h. As for the experimental part:
(§1) Thienamycin biosynthetic cluster genes thnG and thnQ were cloned from genomic DNA and inserted into pET29b each bearing a C-terminal His6-tag. The recombinant proteins were overproduced in E. coli Rosetta2(DE3) and purified by Ni-NTA affinity chromatography. In vitro reactions in MOPS, pH 7.0, containing Fe(NH4)2(SO4)2, α-KG, ascorbate, the subject carbapenam/em, and either ThnG or ThnQ were incubated and analyzed by HPLC for the formation of new product(s). Salowe, S. P., et al., Biochemistry 29(27):6499-6508 (1990); Decristoforo, G. Anal. Chim. Acta 163(SEP):25-33 (1984). […] The products were immediately identifiable as carbapenems by their unique chromophores (λmax=290-320 nm). ThnQ produced a single new product more polar than 5, while ThnG produced two products, one with a shorter retention time and one with a longer retention time than that of 5.
For routine HPLC analysis, reactions were assembled containing 25 mM MOPS, pH 7.0, 1 mM ascorbate, 0.08 mM ferrous ammonium sulfate, 8 mM α-ketoglutarate (α-KG), 1 mM of the substrate and 0.2 mg/mL ThnG or ThnQ. Salowe, S. P., et al., Biochemistry 29(27):6499-6508 (1990). After addition of the protein, the reactions were incubated at room temperature for 1 h. The protein was then removed with an Amicon Ultra 10,000 MWCO filter. For ESI mass spectroscopic analysis of HPLC purified enzymatic products, reactions were assembled under similar conditions except containing 2 mM substrate, 2 mM ascorbate and 0.6 mg/mL ThnG or ThnQ.
HPLC conditions: Phenomenex Luna 5 μC18(2) analytical column; Method 1, A=50 mM ammonium formate pH 8.5, B=MeOH, t=0 min 0% B, t=10 min 35% B, t=13 min 35% B, t=15 min 0% B, t=20 min 0% B. Method 2, A=50 mM ammonium formate pH 8.5, B=MeOH, t=0 min 0% B, t=10 min 33% B, t=18 min 33% B, t=20 min 0% B, t=25 min 0% B. λ=300 nm (carbapenem) or 220 nm (carbapenam). Decristoforo, G., Anal. Chim. Acta 163:25-33 (1984). Purified carbapenems were collected from the HPLC and analyzed directly by ESI mass spectrometry in the negative ion mode.

A further assay has as its system ThnQ. In words: In vitro reaction of carbapenam/ems with purified ThnQ, HPLC and ESI-MS analysis of products. Type of assay: biochemical, Streptomyces cattleya. Conditions: 1 mM substrate, 0.2 mg/mL ThnQ, 25 mM MOPS pH 7.0, ferrous ammonium sulfate, α-KG, ascorbate, room temperature 1 h. As for the experimental part:
as §1, with “5. […]” for “5.”
HPLC conditions: Phenomenex Luna 5 μC18(2) analytical column; Method 1, A=50 mM ammonium formate pH 8.5, B=MeOH, t=0 min 0% B, t=10 min 35% B, t=13 min 35% B, t=15 min 0% B, t=20 min 0% B. Method 2, A=50 mM ammonium formate pH 8.5, B=MeOH, t=0 min 0% B, t=10 min 33% B, t=18 min 33% B, t=20 min 0% B, t=25 min 0% B. λ=300 nm (carbapenem) or 220 nm (carbapenam). […] Purified carbapenems were collected from the HPLC and analyzed directly by ESI mass spectrometry in the negative ion mode.

On to `CC(=O)NCCSC1=C(C(=O)O)N2C(=O)[C@H]([C@@H](C)O)[C@H]2C1` [compound 2, N-acetyl thienamycin], for which, in the assay on ThnG, the “product(s) of the ThnG-catalyzed reaction (HPLC, ESI-MS)” value was “N-acetyl dehydrothienamycin (3)”.

Take `CC[C@H]1C(=O)N2C(C(=O)O)=C(SCCNC(C)=O)C[C@H]12` [compound 5, PS-5]: in the assay on ThnQ, the “product(s) of the ThnQ-catalyzed reaction (HPLC, ESI-MS)” value is listed as “stereospecifically hydroxylated PS-5 (5) to produce 2”. In addition, the “product(s) of the ThnG-catalyzed reaction (HPLC, ESI-MS)” value in the assay on ThnG is “identified as PS-7 (7) and PS-7 sulfoxide 9”.

`CCC1C(=O)N2C(C(=O)O)=C(S/C=C/NC(C)=O)CC12` (stereo not drawn) [compound 7, PS-7]: the “product(s) of the ThnQ-catalyzed reaction (HPLC, ESI-MS)” value in the assay with ThnQ is reported as “N-acetyl dehydrothienamycin (3)”. Also, the “product(s) of the ThnG-catalyzed reaction (HPLC, ESI-MS)” value in the assay on ThnG is recorded as “able to convert 7 to its sulfoxide”.

With `CCC1C(=O)N2C(C(=O)O)=C([S+]([O-])CCNC(C)=O)CC12` (stereo not drawn) [compound 8, PS-5 sulfoxide], the “product(s) of the ThnG-catalyzed reaction (HPLC, ESI-MS)” value in the assay with ThnG is on record as “unable to catalyze desaturation”.

Source of the values: patent US9458479B2, “Method for late introduction of the (8R) hydroxyl group carbapenem β-lactam antibiotic synthesis” (THE JOHNS HOPKINS UNIVERSITY, priority 2009, dated 2016).
